US20230085307A1, “PYRIDAZINONE COMPOUND AND HERBICIDE” (NISSAN CHEMICAL CORPORATION, priority 2019, published 2023)

Legend:
[1] = tested on: late watergrass; experiment: Test Example 1: herbicidal activity, application before weed generation under submerged conditions (Table 16, symbol A); assay type: in vivo, late watergrass (Echinochloa oryzicola); details: 320 g/ha applied herbicide
Method in brief: (§1)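 Submerged Wagner pots (alluvial soil, 4 cm water) sown with weed seeds and planted with 2.5-leaf rice seedlings; emulsifiable concentrate diluted in water applied to water surface on sowing day. Held in greenhouse at 25-30 °C; injury scored 0-5 by herbicidal rate after three weeks.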

[2] = tested on: Japanese bulrush; experiment: Test Example 1: herbicidal activity, application before weed generation under submerged conditions (Table 16, symbol B); assay type: in vivo, Japanese bulrush (Schoenoplectus juncoides); details: 320 g/ha applied herbicide
Method in brief: as §1

[3] = tested on: oval-leafed pondweed; experiment: Test Example 1: herbicidal activity, application before weed generation under submerged conditions (Table 16, symbol C); assay type: in vivo, oval-leafed pondweed (Monochoria vaginalis); details: 320 g/ha applied herbicide
Method in brief: as §1

[4] = tested on: barnyard grass; experiment: Test Example 3: herbicidal effect by foliage application, Wagner pot (Table 18, symbol H); assay type: in vivo, barnyard grass (Echinochloa crus-galli); details: amount of applied herbicide 320 g/ha
Method in brief: (§2)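 Plants were sown in alluvial soil held under 0.1–0.5 cm standing water and grown 14 days in a greenhouse at 25–30 °C. An emulsifiable formulation, water-diluted to the set dose, was then sprayed onto the foliage, and effects were scored three weeks later using previously defined criteria.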

[5] = tested on: Chinese sprangletop; experiment: Test Example 3: herbicidal effect by foliage application, Wagner pot (Table 18, symbol D); assay type: in vivo, chinese sprangletop (Leptochloa chinensis); details: amount of applied herbicide 320 g/ha
Method in brief: as §2

[6] = tested on: rice flat sedge; experiment: Test Example 3: herbicidal effect by foliage application, Wagner pot (Table 18, symbol E); assay type: in vivo, rice flat sedge (Cyperus iria); details: amount of applied herbicide 320 g/ha
Method in brief: as §2

[7] = tested on: southern crabgrass; experiment: Test Example 4: herbicidal effect by soil treatment (Table 19, symbol F); assay type: in vivo, southern crabgrass (Digitaria ciliaris); details: amount of applied herbicide 320 g/ha
Method in brief: (§3)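 Applied as a water-diluted emulsion, the compound was sprayed onto soil covering newly sown seeds. Evaluation came three weeks after application, in a greenhouse held at 25° C. to 30° C.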

[8] = tested on: green foxtail; experiment: Test Example 4: herbicidal effect by soil treatment (Table 19, symbol G); assay type: in vivo, green foxtail (Setaria viridis); details: amount of applied herbicide 320 g/ha
Method in brief: as §3

[9] = tested on: barnyard grass; experiment: Test Example 4: herbicidal effect by soil treatment (Table 19, symbol H); assay type: in vivo, barnyard grass (Echinochloa crus-galli); details: amount of applied herbicide 320 g/ha
Method in brief: as §3

[10] = tested on: wild oat; experiment: Test Example 4: herbicidal effect by soil treatment (Table 19, symbol I); assay type: in vivo, wild oat (Avena fatua); details: amount of applied herbicide 320 g/ha
Method in brief: as §3

[11] = tested on: blackgrass; experiment: Test Example 4: herbicidal effect by soil treatment (Table 19, symbol J); assay type: in vivo, blackgrass (Alopecurus myosuroides); details: amount of applied herbicide 320 g/ha
Method in brief: as §3

[12] = tested on: Italian ryegrass; experiment: Test Example 4: herbicidal effect by soil treatment (Table 19, symbol K); assay type: in vivo, Italian ryegrass (Lolium multiflorum); details: amount of applied herbicide 320 g/ha
Method in brief: as §3

[13] = tested on: windgrass; experiment: Test Example 4: herbicidal effect by soil treatment (Table 19, symbol L); assay type: in vivo, windgrass (Apera spica-venti); details: amount of applied herbicide 320 g/ha
Method in brief: as §3

[14] = tested on: velvetleaf; experiment: Test Example 4: herbicidal effect by soil treatment (Table 19, symbol M); assay type: in vivo, velvetleaf (Abutilon theophrasti); details: amount of applied herbicide 320 g/ha
Method in brief: as §3

[15] = tested on: redroot pigweed; experiment: Test Example 4: herbicidal effect by soil treatment (Table 19, symbol N); assay type: in vivo, redroot pigweed (Amaranthus retroflexus); details: amount of applied herbicide 320 g/ha
Method in brief: as §3

[16] = tested on: lambsquarters; experiment: Test Example 4: herbicidal effect by soil treatment (Table 19, symbol O); assay type: in vivo, lambsquarters (Chenopodium album); details: amount of applied herbicide 320 g/ha
Method in brief: as §3

[17] = tested on: chickweed; experiment: Test Example 4: herbicidal effect by soil treatment (Table 19, symbol P); assay type: in vivo, common chickweed (Stellaria media); details: amount of applied herbicide 320 g/ha
Method in brief: as §3

[18] = tested on: persian speedwell; experiment: Test Example 4: herbicidal effect by soil treatment (Table 19, symbol R); assay type: in vivo, Persian speedwell (Veronica persica); details: amount of applied herbicide 320 g/ha
Method in brief: as §3

[19] = tested on: southern crabgrass; experiment: Test Example 5: herbicidal effect by foliage application, plastic box (Table 20, symbol F); assay type: in vivo, southern crabgrass (Digitaria ciliaris); details: foliage application, 320 g/ha, evaluated three weeks after application
Method in brief: (§4)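 Sow seeds spot-wise in sterilized diluvial soil; cover with ~1.5 cm soil. Grow 14 days in greenhouse, 25° C. to 30° C. Spray foliage with emulsion diluted to predetermined amount. Rate effect after 3 weeks.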

[20] = tested on: green foxtail; experiment: Test Example 5: herbicidal effect by foliage application, plastic box (Table 20, symbol G); assay type: in vivo, green foxtail (Setaria viridis); details: foliage application, 320 g/ha, evaluated three weeks after application
Method in brief: as §4

[21] = tested on: barnyard grass; experiment: Test Example 5: herbicidal effect by foliage application, plastic box (Table 20, symbol H); assay type: in vivo, barnyard grass (Echinochloa crus-galli); details: foliage application, 320 g/ha, evaluated three weeks after application
Method in brief: as §4

[22] = tested on: wild oat; experiment: Test Example 5: herbicidal effect by foliage application, plastic box (Table 20, symbol I); assay type: in vivo, wild oat (Avena fatua); details: foliage application, 320 g/ha, evaluated three weeks after application
Method in brief: as §4

[23] = tested on: blackgrass; experiment: Test Example 5: herbicidal effect by foliage application, plastic box (Table 20, symbol J); assay type: in vivo, blackgrass (Alopecurus myosuroides); details: foliage application, 320 g/ha, evaluated three weeks after application
Method in brief: as §4

[24] = tested on: Italian ryegrass; experiment: Test Example 5: herbicidal effect by foliage application, plastic box (Table 20, symbol K); assay type: in vivo, Italian ryegrass (Lolium multiflorum); details: foliage application, 320 g/ha, evaluated three weeks after application
Method in brief: as §4

[25] = tested on: windgrass; experiment: Test Example 5: herbicidal effect by foliage application, plastic box (Table 20, symbol L); assay type: in vivo, windgrass (Apera spica-venti); details: foliage application, 320 g/ha, evaluated three weeks after application
Method in brief: as §4

[26] = tested on: velvetleaf; experiment: Test Example 5: herbicidal effect by foliage application, plastic box (Table 20, symbol M); assay type: in vivo, velvetleaf (Abutilon theophrasti); details: foliage application, 320 g/ha, evaluated three weeks after application
Method in brief: as §4

[27] = tested on: redroot pigweed; experiment: Test Example 5: herbicidal effect by foliage application, plastic box (Table 20, symbol N); assay type: in vivo, redroot pigweed (Amaranthus retroflexus); details: foliage application, 320 g/ha, evaluated three weeks after application
Method in brief: as §4

[28] = tested on: lambsquarters; experiment: Test Example 5: herbicidal effect by foliage application, plastic box (Table 20, symbol O); assay type: in vivo, lambsquarters (Chenopodium album); details: foliage application, 320 g/ha, evaluated three weeks after application
Method in brief: as §4

[29] = tested on: chickweed; experiment: Test Example 5: herbicidal effect by foliage application, plastic box (Table 20, symbol P); assay type: in vivo, common chickweed (Stellaria media); details: foliage application, 320 g/ha, evaluated three weeks after application
Method in brief: as §4

[30] = tested on: persian speedwell; experiment: Test Example 5: herbicidal effect by foliage application, plastic box (Table 20, symbol R); assay type: in vivo, Persian speedwell (Veronica persica); details: foliage application, 320 g/ha, evaluated three weeks after application
Method in brief: as §4

## COc1cc(F)ccc1-c1sc2ccc(NS(C)(=O)=O)cc2c1-c1c(O)c(C)nn(C)c1=O [2-183]
[1]
  Herbicidal effect on A: late watergrass (grade 0-5): 2 (Herbicidal rate of 20% or more and less than 40%)
[2]
  Herbicidal effect on B: Japanese bulrush (grade 0-5): 0 (Herbicidal rate of 5% or less (almost no effect))
[3]
  Herbicidal effect on C: oval-leafed pondweed (grade 0-5): 0 (Herbicidal rate of 5% or less (almost no effect))
[4]
  herbicidal effect on H: barnyard grass: 4 (Herbicidal rate of 70% or more and less than 90%)
[5]
  herbicidal effect on D: Chinese sprangletop: 3 (Herbicidal rate of 40% or more and less than 70%)
[6]
  herbicidal effect on E: rice flat sedge: 0 (Herbicidal rate of 5% or less (almost no effect))
[7]
  F: southern crabgrass, herbicidal effect rating: 0 (Herbicidal rate of 5% or less (almost no effect))
[8]
  G: green foxtail, herbicidal effect rating: 0 (Herbicidal rate of 5% or less (almost no effect))
[9]
  H: barnyard grass, herbicidal effect rating: 0 (Herbicidal rate of 5% or less (almost no effect))
[10]
  I: wild oat, herbicidal effect rating: 0 (Herbicidal rate of 5% or less (almost no effect))
[11]
  J: blackgrass, herbicidal effect rating: 0 (Herbicidal rate of 5% or less (almost no effect))
[12]
  K: Italian ryegrass, herbicidal effect rating: 0 (Herbicidal rate of 5% or less (almost no effect))
[13]
  L: windgrass, herbicidal effect rating: 0 (Herbicidal rate of 5% or less (almost no effect))
[14]
  M: velvetleaf, herbicidal effect rating: 0 (Herbicidal rate of 5% or less (almost no effect))
[15]
  N: redroot pigweed, herbicidal effect rating: 0 (Herbicidal rate of 5% or less (almost no effect))
[16]
  O: lambsquarters, herbicidal effect rating: 0 (Herbicidal rate of 5% or less (almost no effect))
[17]
  P: chickweed, herbicidal effect rating: 3 (Herbicidal rate of 40% or more and less than 70%)
[18]
  R: persian speedwell, herbicidal effect rating: 3 (Herbicidal rate of 40% or more and less than 70%)
[19]
  herbicidal effect on F: southern crabgrass (criteria 0-5): 0 (Herbicidal rate of 5% or less (almost no effect))
[20]
  herbicidal effect on G: green foxtail (criteria 0-5): 0 (Herbicidal rate of 5% or less (almost no effect))
[21]
  herbicidal effect on H: barnyard grass (criteria 0-5): 0 (Herbicidal rate of 5% or less (almost no effect))
[22]
  herbicidal effect on I: wild oat (criteria 0-5): 0 (Herbicidal rate of 5% or less (almost no effect))
[23]
  herbicidal effect on J: blackgrass (criteria 0-5): 4 (Herbicidal rate of 70% or more and less than 90%)
[24]
  herbicidal effect on K: Italian ryegrass (criteria 0-5): 0 (Herbicidal rate of 5% or less (almost no effect))
[25]
  herbicidal effect on L: windgrass (criteria 0-5): 3 (Herbicidal rate of 40% or more and less than 70%)
[26]
  herbicidal effect on M: velvetleaf (criteria 0-5): 1 (Herbicidal rate of 5% or more and less than 20%)
[27]
  herbicidal effect on N: redroot pigweed (criteria 0-5): 1 (Herbicidal rate of 5% or more and less than 20%)
[28]
  herbicidal effect on O: lambsquarters (criteria 0-5): 3 (Herbicidal rate of 40% or more and less than 70%)
[29]
  herbicidal effect on P: chickweed (criteria 0-5): 4 (Herbicidal rate of 70% or more and less than 90%)
[30]
  herbicidal effect on R: persian speedwell (criteria 0-5): 4 (Herbicidal rate of 70% or more and less than 90%)
